Experimental findings from US7425557B2, “Inhibitors of glycogen synthase kinase 3” (Novartis Vaccines and Diagnostics, Inc., priority 1998, dated 2008) are described below.

Usually IC50 stands for the concentration that gives 50% inhibition.

The experiment concerns the target human GSK3β (Homo sapiens, UniProt P49841). Description: Screening for GSK3 inhibitory activity using a cell-free assay. The class given is biochemical. Conditions: read-out: IC50 with respect to GSK3. As for the experimental part: This amount represents the amount of radiolabeled phosphate incorporated into the peptide substrate.
The captured radiolabeled peptide substrate can be quantitated in a scintillation counter using known methods. […] If an inhibitor is present during the reaction, GSK3 activity will be reduced, and a smaller quantity of radiolabeled phosphate will thus be incorporated into the peptide substrate.
Pyrimidine and pyridine compounds of the present invention were dissolved in DMSO, then tested for inhibition of human GSK3β (the nucleotide sequence for human GSK3β appears in GenBank under Accession No. L33801).
While the reaction was proceeding, streptavidin-coated Labsystems “Combiplate 8” capture plates (Labsystems, Helsinki, Finland) were blocked by incubating them with 300 μl/well of PBS containing 1% bovine serum albumin for at least one hour at room temperature. The blocking solution was then removed by aspiration, and the capture plates were filled with 100 ul/well of stopping reagent (50 μM ATP/20 mM EDTA).
When the three hour enzyme reaction was finished, triplicate 100 μl aliquots of each reaction mix were transferred to three wells containing stopping solution, one well on each of the three capture plates, and the well contents were mixed well. […] Finally, 200 μl of Microscint-20 scintillation fluid was added to each well of the plate. The plates were coated with plate sealers, then left on a shaker for 30 minutes. Each capture plate was counted in a Packard TopCount scintillation counter (Meridian, Conn.) and the results were plotted as a function of compound concentration.

Sequence of human GSK3β (P49841 whole entry): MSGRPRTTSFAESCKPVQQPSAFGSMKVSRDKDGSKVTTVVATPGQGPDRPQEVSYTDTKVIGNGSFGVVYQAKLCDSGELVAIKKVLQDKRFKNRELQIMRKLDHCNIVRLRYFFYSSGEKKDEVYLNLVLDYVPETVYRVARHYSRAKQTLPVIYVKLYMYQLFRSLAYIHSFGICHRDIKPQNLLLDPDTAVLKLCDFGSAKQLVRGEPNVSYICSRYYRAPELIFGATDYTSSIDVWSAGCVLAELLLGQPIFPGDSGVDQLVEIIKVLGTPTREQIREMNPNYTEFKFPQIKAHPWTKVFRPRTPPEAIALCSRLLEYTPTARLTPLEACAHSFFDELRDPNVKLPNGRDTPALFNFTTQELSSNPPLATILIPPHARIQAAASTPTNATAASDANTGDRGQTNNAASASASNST

On to `O=c1ccccn1-c1cnc(NCCNc2ccc([N+](=O)[O-])cn2)nc1-c1ccc(Cl)cc1Cl`, for which the IC50 is no more than 1000 nM.

As for `N#Cc1ccc(-c2nc(NCCNc3ccc([N+](=O)[O-])cn3)ncc2C(=O)OCCN(CCO)CCO)cc1`, the IC50 was no more than 1000 nM. Under `CN(C)CCOC(=O)c1cnc(NCCNc2ccc([N+](=O)[O-])c(N)n2)nc1-c1ccc(C#N)cc1` stands no more than 1000 nM; under `CN(C)CCOC(=O)c1cnc(NCCNc2ccc([N+](=O)[O-])cn2)nc1-c1ccc(C#N)cc1`, no more than 1000 nM; under `NC(=O)c1ccc(-c2ccnc(NCCc3ccc4c(c3)OCO4)n2)cc1`, no more than 10000 nM. Under `NC(=O)c1ccc(-c2ccnc(NCCc3cccc(Cl)c3)n2)cc1` stands no more than 10000 nM; under `NC(=O)c1ccc(-c2ccnc(NCCNc3nc4ccccc4s3)n2)cc1`, no more than 10000 nM. Take `CN(C)CCCCOC(=O)c1cnc(NCCNc2ccc([N+](=O)[O-])cn2)nc1-c1ccc(C#N)cc1`: the IC50 is no more than 1000 nM. The same measure for `Nc1nc(NCCNc2ncc(N3C(=O)c4cccnc4C3=O)c(-c3ccc(Cl)cc3Cl)n2)ccc1[N+](=O)[O-]`: no more than 1000 nM; for `N#Cc1ccc(NCCNc2ncc(-n3cc(Cl)ccc3=O)c(-c3ccc(Cl)cc3Cl)n2)nc1`: no more than 1000 nM; for `Nc1nc(NCCNc2ncc(C(=O)O)c(-c3ccc([N+](=O)[O-])cc3)n2)ccc1[N+](=O)[O-]`: no more than 1000 nM. `Cc1cn(-c2cnc(NCCNc3ccc([N+](=O)[O-])c(N)n3)nc2-c2ccc(Cl)cc2Cl)c(C)n1`: the IC50 is no more than 1000 nM. With `Cc1nccn1-c1cnc(NCCNc2ccc([N+](=O)[O-])c(N)n2)nc1-c1ccc(Cl)cc1Cl`, the IC50 is no more than 1000 nM. In the case of `O=[N+]([O-])c1ccc(NCCNc2ncc(-n3cccn3)c(-c3ccc(Cl)cc3Cl)n2)nc1`, the IC50 was no more than 1000 nM.

As for `CCc1cnc(NCCNc2ccccn2)nc1-c1ccccc1`, the IC50 was no more than 10000 nM. As to `O=[N+]([O-])c1ccc(NCCNc2nccc(NCc3ccc(Cl)cc3Cl)n2)nc1`, the IC50 is no more than 10000 nM.

In the case of `CCOC(=O)c1cnc(NCCNc2ccc([N+](=O)[O-])cn2)nc1-c1ccc(OC(F)(F)F)cc1`, the half-maximal inhibitory concentration (IC50) was no more than 1000 nM. The same measure for `CCOC(=O)c1cnc(NCCNc2ccc([N+](=O)[O-])cn2)nc1-c1ccc([N+](=O)[O-])cc1`: no more than 1000 nM; for `CCOC(=O)c1cnc(NCCNc2ccc([N+](=O)[O-])cn2)nc1-c1ccc2c(c1)OCO2`: no more than 1000 nM. The same measure for `CCOC(=O)c1c(-c2ccncc2)nc(NCCNc2ccc([N+](=O)[O-])cn2)nc1-c1ccc(C(N)=O)cc1`: no more than 1000 nM; for `CCOC(=O)c1cnc(NCCNc2ccc([N+](=O)[O-])c(NCc3ccccc3)n2)nc1-c1ccc(C#N)cc1`: no more than 10000 nM; for `CN1CC(=O)N(c2cnc(NCCNc3ccc([N+](=O)[O-])c(N)n3)nc2-c2ccc(Cl)cc2Cl)C(=O)C1` [1-[2-({2-[(6-amino-5-nitro(2-pyridyl))amino]ethyl}-amino)-4-(2,4-dichlorophenyl)pyrimidin-5-yl]-4-methylpiperazine-2,6-dione]: no more than 1000 nM. Turning to `CN(C)C1CC(=O)N(c2cnc(NCCNc3ccc([N+](=O)[O-])c(N)n3)nc2-c2ccc(Cl)cc2Cl)C1=O` (stereo not drawn) [1-[2-({2-[(6-amino-5-nitro(2-pyridyl))amino]ethyl}amino)-4-(2,4-dichlorophenyl)pyrimidin-5-yl]-3-(dimethylamino)pyrrolidine-2,5-dione], the IC50 is no more than 1000 nM. The same measure for `Nc1nc(NCCNc2ncc(N3C(=O)CC(N4CCOCC4)C3=O)c(-c3ccc(Cl)cc3Cl)n2)ccc1[N+](=O)[O-]` (stereo not drawn) [1-[2-({2-[(6-amino-5-nitro(2-pyridyl))amino]ethyl}amino)-4-(2,4-dichlorophenyl)pyrimidin-5-yl]-3-morpholin-4-ylpyrrolidine-2,5-dione]: no more than 1000 nM; for `Nc1nc(NCCNc2ncc(N3C(=O)CCC3=O)c(-c3ccc(Cl)cc3Cl)n2)ccc1[N+](=O)[O-]` [1-[2-({2-[(6-amino-5-nitro(2-pyridyl))amino]ethyl}amino)-4-(2,4-dichlorophenyl)pyrimidin-5-yl]-pyrrolidine-2,5-dione]: no more than 1000 nM. Regarding `CN1CC(=O)N(c2cnc(NCCNc3ccc([N+](=O)[O-])cn3)nc2-c2ccc(Cl)cc2Cl)C(=O)C1` [1-[4-(2,4-dichlorophenyl)-2-({2-[(5-nitro(2-pyridyl))amino]ethyl}amino)pyrimidin-5-yl]-4-methylpiperazine-2,6-dione], the IC50 was no more than 1000 nM.

Regarding `CN1CCN(c2ccc(NCCNc3ccc([N+](=O)[O-])c(N)n3)nc2-c2cccnc2)C(=O)C1` [1-{6-[2-(6-Amino-5-nitropyridin-2-ylamino)-ethylamino]-[2,3′]bipyridinyl-3-yl}-4-methyl-piperazin-2-one], the IC50 was no more than 10000 nM.

Regarding `CN(C)CCOC(=O)c1cnc(NCCNc2ccc([N+](=O)[O-])c(N)n2)nc1-c1ccc(Cl)cc1Cl` [2-(dimethylamino)ethyl 2-({2-[(6-amino-5-nitro(2-pyridyl))amino]ethyl}amino)-4-(2,4-dichlorophenyl)pyrimidine-5-carboxylate], the IC50 was no more than 1000 nM.

For `O=C(O)c1c(-c2ccccc2)nc(NCCNc2ccc([N+](=O)[O-])cn2)nc1-c1ccc([N+](=O)[O-])cc1` [2-({2-[(5-nitro(2-pyridyl))amino]ethyl}-amino)-6-(4-nitrophenyl)-4-phenylpyrimidine-5-carboxylic acid], the IC50 is no more than 10000 nM.

`O=C(O)c1c(-c2ccc([N+](=O)[O-])cc2)nc(NCCNc2ccc([N+](=O)[O-])cn2)nc1-c1cccc([N+](=O)[O-])c1` [2-({2-[(5-nitro(2-pyridyl))amino]ethyl}amino)-4-(3-nitrophenyl)-6-(4-nitrophenyl)pyrimidine-5-carboxylic acid]: the IC50 was no more than 10000 nM. On to `N#Cc1cnc(NCCNc2ccc([N+](=O)[O-])cn2)nc1-c1ccccc1` [2-({2-[(5-nitro(2-pyridyl))amino]ethyl}amino)-4-phenylpyrimidine-5-carbonitrile], for which the IC50 was no more than 1000 nM.

As to `O=C(O)c1c(-c2ccncc2)nc(NCCNc2ccc([N+](=O)[O-])cn2)nc1-c1ccc([N+](=O)[O-])cc1` [2-({2-[(5-nitro(2-pyridyl))amino]ethyl}amino)-6-(4-nitrophenyl)-4-(4-pyridyl)pyrimidine-5-carboxylic acid], the IC50 was no more than 10000 nM. The same measure for `O=C(O)c1c(-c2ccc([N+](=O)[O-])cc2)nc(NCCNc2ccc([N+](=O)[O-])cn2)nc1-c1ccnc2ccccc12` [2-({2-[(5-nitro(2-pyridyl))amino]ethyl}amino)-6-(4-nitrophenyl)-4-(4-quinolyl)pyrimidine-5-carboxylic acid]: no more than 10000 nM.

For `O=C(O)c1c(-c2ccc([N+](=O)[O-])cc2)nc(NCCNc2ccc([N+](=O)[O-])cn2)nc1-c1ccc(C(F)(F)F)cc1` [2-({2-[(5-nitro(2-pyridyl))amino]ethyl}amino)-6-(4-nitrophenyl)-4-[4-(trifluoromethyl)phenyl]pyrimidine-5-carboxylic acid], the IC50 is no more than 10000 nM. The same measure for `N#Cc1cnc(NCCNc2ccc([N+](=O)[O-])c(N)n2)nc1-c1ccc(Cl)cc1Cl` [2-({2-[(6-amino-5-nitro(2-pyridyl))amino]ethyl}amino)-4-(2,4-dichlorophenyl)pyrimidine-5-carbonitrile]: no more than 1000 nM. Under `Nc1nc(NCCNc2ncc(C(=O)O)c(-c3ccc(Cl)cc3Cl)n2)ccc1[N+](=O)[O-]` [2-({2-[(6-amino-5-nitro(2-pyridyl))amino]ethyl}amino)-4-(2,4-dichlorophenyl)pyrimidine-5-carboxylic acid] stands no more than 1000 nM; under `N#Cc1cnc(NCCNc2ccc([N+](=O)[O-])c(N)n2)nc1-c1ccc(Cl)c(Cl)c1` [2-({2-[(6-amino-5-nitro(2-pyridyl))amino]ethyl}amino)-4-(3,4-dichlorophenyl)pyrimidine-5-carbonitrile], no more than 10000 nM. As to `Nc1nc(NCCNc2ncc(N3C(=O)c4ccccc4C3=O)c(-c3ccc(Cl)cc3Cl)n2)ccc1[N+](=O)[O-]` [2-[2-({2-[(6-amino-5-nitro(2-pyridyl))amino]ethyl}amino)-4-(2,4-dichlorophenyl)pyrimidin-5-yl]isoindoline-1,3-dione], the IC50 is no more than 1000 nM. Turning to `N#Cc1ccc(-c2nc(NCCNc3ccc([N+](=O)[O-])cn3)ncc2C(=O)OCC(O)CN2CCOCC2)cc1` (stereo not drawn) [2-hydroxy-3-morpholin-4-yl-propyl 4-(4-cyanophenyl)-2-({2-[(5-nitro(2-pyridyl))amino]ethyl}amino)pyrimidine-5-carboxylate], the IC50 is no more than 1000 nM. The same measure for `N#Cc1ccc(-c2nc(NCCNc3ccc([N+](=O)[O-])cn3)ncc2C(=O)OCCO)cc1` [2-hydroxyethyl 4-(4-cyanophenyl)-2-({2-[(5-nitro(2-pyridyl))-amino]ethyl}amino)pyrimidine-5-carboxylate]: no more than 1000 nM. Turning to `N#Cc1ccc(-c2nc(NCCNc3ccc([N+](=O)[O-])cn3)ncc2C(=O)OCCN2CCOCC2)cc1` [2-morpholin-4-ylethyl 4-(4-cyanophenyl)-2-({2-[(5-nitro(2-pyridyl))amino]ethyl}-amino)pyrimidine-5-carboxylate], the IC50 was no more than 1000 nM. As to `CN(C)CCCOC(=O)c1cnc(NCCNc2ccc([N+](=O)[O-])cn2)nc1-c1ccc(C#N)cc1` [3-(dimethylamino)propyl 4-(4-cyanophenyl)-2-({2-[(5-nitro(2-pyridyl))amino]ethyl}amino)pyrimidine-5-carboxylate], the IC50 is no more than 1000 nM.
